# Source: patent US20230114241A1, “METHODS OF TREATING EPILEPSY USING THE SAME” (Trevena, Inc., priority 2019, published 2023)
# Molecular target: human sphingosine-1-phosphate receptor 1 (S1P1) (Homo sapiens, UniProt P21453)
# Assay: Inhibition of cAMP production (HTRF cAMP HiRange), S1P1 CHO-K1 cells
# Type: cell-based
# Conditions: inhibition of cAMP production, S1P1; read-out: hS1P1 CAMP pEC50 (converted)
# Experimental: Stable clonal Chinese hamster ovary K1 (CHO-K1) cells co-expressing EA-β-arrestin2 and the human sphingosine-1-phosphate receptor 1 (NM_001400, S1P1) with a C-terminal Prolink™ tag were purchased from DiscoverX corporation (Cat #: 93-0207C2).
# Cell lines were cultured in AssayComplete™ Media 6 (DiscoverX Corporation, Cat #: 920018GF2) at 37° C. and 5% CO2 in a humidified CO2 and temperature-controlled incubator. To begin assay plating, cells were washed with Dulbecco's phosphate buffered saline (CellGro, Cat #: 21-031-CV) and lifted from the culturing flask by incubation (37° C., 5 min) with CellStripper (Cellgro, Cat #: 25-056-CI). […] Plated cells were incubated overnight at 37° C. and 5% CO2 in a humidified CO2 and temperature-controlled incubator.
# Agonist-promoted G-protein responses were determined by measuring changes in intracellular cAMP using the HTRF® cAMP HiRange kit (CisBio, Cat #: 62AM6PEJ) based on time-resolved fluorescence resonance energy transfer (TR-FRET) technology. […] Following a 30-minute incubation at 37° C. and 5% CO2 in a humidified CO2 and temperature-controlled incubator, the components of the cAMP HiRange kit were added as per the manufacturer's instructions. After an hour incubation at room temperature, plates were analyzed by a BMG PheraStar microplate reader.
# These values are normalized to fingolimod, a known agonist of the sphingosine-1-phosphate 1 receptor.
# Chain of human sphingosine-1-phosphate receptor 1 (S1P1) (P21453 whole entry): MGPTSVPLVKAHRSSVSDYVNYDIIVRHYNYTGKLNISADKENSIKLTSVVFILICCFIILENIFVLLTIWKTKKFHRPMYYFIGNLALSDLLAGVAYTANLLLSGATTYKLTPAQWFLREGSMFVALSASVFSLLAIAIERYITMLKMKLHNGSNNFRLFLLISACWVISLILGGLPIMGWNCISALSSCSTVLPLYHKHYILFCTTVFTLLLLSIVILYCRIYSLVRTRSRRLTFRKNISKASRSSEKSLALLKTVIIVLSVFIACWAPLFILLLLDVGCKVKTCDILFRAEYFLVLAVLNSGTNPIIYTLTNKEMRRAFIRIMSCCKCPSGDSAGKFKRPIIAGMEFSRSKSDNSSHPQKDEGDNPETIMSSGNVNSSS
row,Structure (SMILES),EC50 [µM]
1,"CC(C)n1nnc2cc(-c3nc4ccncc4o3)ccc21 [Compound 503, 2-(1-isopropyl-1H-benzo[d][1,2,3]triazol-5-yl)oxazolo[5,4-c]pyridine]",> 0.316
2,"C=CCNc1ccc(-c2ccc(-c3ccc4c(c3)nnn4C(C)C)cc2)cc1C#N [Compound 508, 4-(allylamino)-4′-(1-isopropyl-1H-benzo[d][1,2,3]triazol-5-yl)-[1,1′-biphenyl]-3-carbonitrile]",> 0.316
3,"CC(=O)Nc1ccccc1-c1coc(-c2ccc3c(c2)nnn3C(C)C)n1 [Compound 458, N-(2-{2-[1-(propan-2-yl)-1H-1,2,3-benzotriazol-5-yl]-1,3-oxazol-4-yl}phenyl)acetamide]",> 0.316
4,"COc1ncccc1-c1nc(-c2ccc3c(c2)nnn3C(C)C)no1 [Compound 607, 3-(1-isopropyl-1H-benzo[d][1,2,3]triazol-5-yl)-5-(2-methoxy-pyridin-3-yl)-1,2,4-oxadiazole]",< 0.316
5,"CCC1(CC)CC(=O)c2cc(-c3nc(-c4cncc(NS(C)(=O)=O)c4)no3)ccc2O1 [Compound 545, N-(5-(5-(2,2-diethyl-4-oxochroman-6-yl)-1,2,4-oxadiazol-3-yl)pyridin-3-yl)methanesulfonamide]",< 0.316
6,"CC(C)n1nnc2cc(-c3nc4c(o3)COc3ccccc3-4)ccc21 [Compound 462, 5-{4H-chromeno[4,3-d][1,3]oxazol-2-yl}-1-(propan-2-yl)-1H-1,2,3-benzotriazole]",< 0.316
7,"COc1ccc2nc(-c3ccc4c(c3)nnn4C(C)C)oc2c1 [Compound 426, 2-(1-isopropyl-1H-benzo[d][1,2,3]triazol-5-yl)-6-methoxy-benzo[d]oxazole]",< 0.316
8,"CC(C)n1nnc2cc(-c3nc(-c4ccccc4C(F)(F)F)co3)ccc21 [Compound 432, 1-(propan-2-yl)-5-{4-[2-(trifluoromethyl)phenyl]-1,3-oxazol-2-yl}-1H-1,2,3-benzotriazole]",< 0.316
9,"Cc1ccc2oc(-c3ccc4c(c3)nnn4C(C)C)nc2c1 [Compound 419, 2-(1-isopropyl-1H-benzo[d][1,2,3]triazol-5-yl)-5-methyl-benzo[d]oxazole]",< 0.316

# Same assay, conditions: inhibition of cAMP production; potency; read-out: hS1P1 CAMP pEC50 (converted)
row,Structure (SMILES),EC50 [µM]
1,"Cc1ccsc1-c1noc(-c2ccc3c(c2)nnn3CC2CC2)n1 [Compound 239, 1-(cyclopropyl-methyl)-5-[3-(3-methylthiophen-2-yl)-1,2,4-oxadiazol-5-yl]-1H-1,2,3-benzotriazole]",> 0.316
2,"CCC1(CC)CC(=O)c2cc(-c3nc(-c4ccc(C(=O)NC)cc4)no3)ccc2O1 [Compound 185, 4-(5-(2,2-diethyl-4-oxochroman-6-yl)-1,2,4-oxadiazol-3-yl)-N-methylbenzamide]",< 0.316
3,"N#Cc1cc(-c2nnc(-c3ccc4[nH]ncc4c3)o2)ccc1NCC(F)F [Compound 354, 2-[(2,2-difluoro-ethyl)amino]-5-[5-(1H-indazol-5-yl)-l,3,4-oxadiazol-2-yl]benzonitrile]",< 0.316
4,"COc1ccc(-c2noc(-c3ccc4c(c3)nnn4C(C)C)n2)cc1OC [Compound 230, 3-(3,4-dimethoxy-phenyl)-5-(1-isopropyl-1H-benzo[d][1,2,3]triazol-5-yl)-1,2,4-oxadiazole]",> 0.316
5,"CC(C)n1nnc2cc(-c3noc(-c4cnccn4)n3)ccc21 [Compound 78, 3-(1-isopropyl-1H-benzo[d][1,2,3]triazol-5-yl)-5-(pyrazin-2-yl)-1,2,4-oxadiazole]",> 0.316
6,"CCC1(CC)CC(=O)c2cc(-c3nc(-c4ccc(S(N)(=O)=O)cc4)no3)ccc2O1 [Compound 106, 4-(5-(2,2-diethyl-4-oxochroman-6-yl)-1,2,4-oxadiazol-3-yl)benzenesulfonamide]",< 0.316
7,"CCC1(CC)CC(=O)c2cc(-c3nsc(-c4ccc5c(c4)nnn5C(C)C)n3)ccc2O1 [Compound 143, 2,2-diethyl-6-(5-(1-isopropyl-1H-benzo[d][1,2,3]triazol-5-yl)-1,2,4-thiadiazol-3-yl)chroman-4-one]",> 0.316
8,"CC(C)n1ccc2cc(-c3nc(-c4ccccc4O)no3)ccc21 [Compound 323, 2-(5-(1-isopropyl-1H-indol-5-yl)-1,2,4-oxadiazol-3-yl)phenol]",> 0.316
9,"CCc1ncc(-c2noc(-c3ccc4c(c3)nnn4C(C)C)n2)cn1 [Compound 135, 5-[3-(2-ethylpyrimidin-5-yl)-1,2,4-oxadiazol-5-yl]-1-(propan-2-yl)-1H-1,2,3-benzotriazole]",> 0.316
10,"Fc1ccc(-c2noc(-c3ccc4c(c3)nnn4C3CCCC3)n2)cc1 [Compound 232, 1-cyclopentyl-5-[3-(4-fluorophenyl)-1,2,4-oxadiazol-5 yl]-1H-1,2,3-benzotriazole]",> 0.316
11,"COc1ccccc1-c1noc(-c2ccc3c(c2)nnn3C(C)C)n1 [Compound 286, 5-(1-isopropyl-1H-benzo[d][1,2,3]triazol-5-yl)-3-(2-methoxy-phenyl)-1,2,4-oxadiazole]",< 0.316
12,"N#Cc1cc(-c2nnc(-c3ccc4[nH]ncc4c3)o2)ccc1NCCF [Compound 353, 2-[(2-fluoroethyl)amino]-5-[5-(1H-indazol-5-yl)-1,3,4-oxadiazol-2-yl]benzonitrile]",< 0.316
13,"Cc1ccsc1-c1noc(-c2ccc3c(c2)nnn3CC(C)C)n1 [Compound 75, 1-(2-methylpropyl)-5-[3-(3-methylthiophen-2-yl)-1,2,4-oxadiazol-5-yl]-1H-1,2,3-benzotriazole]",< 0.316
14,"N#Cc1cc(-c2nnc(-c3ccc4[nH]cnc4c3)o2)ccc1NCC1CC1 [Compound 357, 5-[5-(1H-1,3-benzo-diazol-5-yl)-1,3,4-oxadiazol-2-yl]-2-[(cyclopropylmethyl)amino]benzonitrile]",< 0.316
15,"CC(C)Oc1ccc(-c2nc(-c3ccc4c(c3)nnn4C3CCCC3)no2)cc1C(F)(F)F [Compound 14, 3-(1-cyclopentyl-1H-benzo[d][1,2,3]triazol-5-yl)-5-(4-isopropoxy-3-(trifluoromethyl)phenyl)-1,2,4-oxadiazole]",< 0.316
16,"COc1ccc(-c2coc(-c3ccc4c(c3)nnn4C(C)C)n2)cc1 [Compound 250, 5-[4-(4-methoxy-phenyl)-1,3-oxazol-2-yl]-1-(propan-2-yl)-1H-1,2,3-benzotriazole]",> 0.316
17,"CC(C)n1ccc2cc(-c3nc(-c4ccccc4Br)no3)ccc21 [Compound 322, 3-(2-bromophenyl)-5-(1-isopropyl-1H-indol-5-yl)-1,2,4-oxadiazole]",< 0.316
18,"N#Cc1cc(-c2nc(-c3ccc4c(c3)CCC(=O)N4)no2)ccc1N [Compound 345, 2-amino-5-[3-(2-oxo-1,2,3,4-tetrahydro-quinolin-6-yl)-1,2,4-oxadiazol-5-yl]benzonitrile]",> 0.316
19,"CCC1(CC)CC(=O)c2cc(-c3nc(-c4ccc(N)cc4)no3)ccc2O1 [Compound 256, 6-(3-(4-amino-phenyl)-1,2,4-oxadiazol-5-yl)-2,2-diethylchroman-4-one]",< 0.316
20,"Cc1ccccc1-c1noc(-c2ccc3c(c2)nnn3C2CCOCC2)n1 [Compound 95, 5-[3-(2-methylphenyl)-1,2,4-oxadiazol-5-yl]-1-(oxan-4-yl)-1H-1,2,3-benzotriazole]",> 0.316
21,"CCC1(CC)CC(=O)c2cc(-c3nc(-c4ccccc4C)no3)ccc2O1 [Compound 66, 2,2-diethyl-6-(3-(o-tolyl)-1,2,4-oxadiazol-5-yl)chroman-4-one]",< 0.316
22,"Cc1ccccc1-c1noc(-c2ccc3c(c2)nnn3C2CCCCC2)n1 [Compound 245, 1-cyclohexyl-5-[3-(2-methylphenyl)-1,2,4-oxadiazol-5-yl]-1H-1,2,3-benzotriazole]",> 0.316
23,"CC(C)n1nnc2cc(-c3ncc(-c4cccc(F)c4)s3)ccc21 [Compound 110, 5-(3-fluorophenyl)-2-(1-isopropyl-1H-benzo[d][1,2,3]triazol-5-yl)thiazole]",> 0.316
24,"Cc1oc(-c2ccc3c(c2)nnn3C(C)C)nc1-c1ccccc1 [Compound 247, 5-(5-methyl-4-phenyl-1,3-oxazol-2-yl)-1-(propan-2-yl)-1H-1,2,3-benzotriazole]",> 0.316
25,"COc1ccccc1-c1nnc(-c2ccc3c(c2)oc(=O)n3C)o1 [Compound 350, 6-[5-(2-methoxyphenyl)-1,3,4-oxadiazol-2-yl]-3-methyl-2,3-dihydro-1,3-benzoxazol-2-one]",> 0.316
26,"c1cc(-c2noc(-c3ccc4c(c3)nnn4C3CCCC3)n2)ccn1 [Compound 174, 1-cyclopentyl-5-[3-(pyridin-4-yl)-1,2,4-oxadiazol-5-yl]-1H-1,2,3-benzotriazole]",< 0.316
27,N#Cc1cc(-c2nnc(-c3ccc4[nH]ncc4c3)o2)ccc1NCC1CC1 [Compound 352],< 0.316
28,"CCC1(CC)CC(=O)c2cc(-c3nc(-c4ccnc(OC)c4)no3)ccc2O1 [Compound 38, 2,2-diethyl-6-(3-(2-methoxypyridin-4-yl)-1,2,4-oxadiazol-5-yl)chroman-4-one]",> 0.316
29,"CC(C)n1nnc2cc(-c3nnc(-c4ccccc4O)s3)ccc21 [Compound 70, 2-{5-[1-(propan-2-yl)-1H-1,2,3-benzotriazol-5-yl]-1,3,4-thiadiazol-2-yl}phenol]",< 0.316
